Assay results from PubChem BioAssay AID2060615 (Molecular Pharmacology Branch, DTP, NCI, 2025).
pIC50: −log10 of the molar value.

Tested on: 496974-208-R-J2-PDC complex spheroids, growth % test/control
Test: Anticancer human tumor 496974-208-R-J2-PDC patient-derived pancreatic carcinoma cell line growth inhibition [CLK]
Conditions: for pIC50: curve of first compound; for viability, T/C: stronger effect = lower value
Source text: A high-throughput screen of multi-cell type tumor spheroids was designed to identify active combinations of […] and targeted small molecules. Complex spheroids include a stromal component modeled by human endothelial cells (HUVEC) and fibroblasts modeled by human mesenchymal stem cells (MSCs). The concentration ranges selected for each drug and investigational agent were based upon clinically achievable concentrations if the clinical Cmax of the agent was known.
Compounds. The drugs and investigational agents: cirtuvivint (SM08502; NSC835563), CC-671 (NSC850746), vemurafenib (NSC761431), tapotoclax (NSC804041), sotorasib (NSC818433), adagrasib (NSC831453), MRTX-1133 (NSC836407), BAY2416964 (NSC825713), copanlisib (NSC816437), inavolisib (NSC800729), abemaciclib (NSC768073), osimertinib (NSC779217), entinostat (NSC756642), eltanexor (KPT-8602, NSC794443), venetoclax (NSC766270), ceralasertib (NSC777638), bortezomib (NSC756655), olaparib (NSC753686), talazoparib (NSC767125), alisertib (NSC759677), peposertib (NSC802822), gemcitabine (NSC613327), 5-fluorouracil (NSC19893), SN-38 (NSC673596), oxaliplatin (NSC266046), paclitaxel (NSC125973), and doxorubicin (NSC123127), were obtained from the National Cancer Institute (NCI) Developmental Therapeutics Program Chemical Repository. The FDA-approved anticancer drug set is available from the Developmental Therapeutics Program at https://dtp.cancer.gov/organization/dscb/obtaining/available plates.htm. […] The stock solutions were prepared in dimethyl sulfoxide (DMSO, Sigma-Aldrich, St. Louis, MO, cat. D2650), except for the platinum complexes which were prepared in saline (Quality Biological, Gaithersburg, MD, cat. 114-055-101), at 800-fold the tested concentration and stored at -70 degrees C prior to their use. All drugs and investigational agents were tested over a range starting from a high concentration at or near the clinical Cmax and decreasing in half-log increments. If the clinical Cmax for an agent had not been determined, the highest concentration tested was 10 microM.
Cell Culture. All cells were maintained in an incubator at 37 degrees C and 5% CO2 with 95% humidity. The PDC lines were cultured according to standard operating procedures established by the NCI PDMR. Briefly, all PDCs were thawed and cultured in Matrigel-coated flasks prepared with a working solution of 1X Ham's F-12 nutrient mix, without supplementation (Invitrogen, Waltham, MA, cat. 11765054), 100 U/mL penicillin-streptomycin (Invitrogen, cat. 15140122), and 2.5% Matrigel (Corning Inc., Corning, NY, cat. 354248) for the first three passages. The 947758-054-R-J2-PDC line was cultured in 6B/Colon 1A media, which includes advanced DMEM/F-12 (Thermo Fisher Scientific, cat. 12634028), 10 mM HEPES (Thermo Fisher Scientific, cat. 15630080), 1X GlutaMAX supplement (Thermo Fisher Scientific, cat. 35050061), 0.1 mg/mL primocin (InvivoGen, cat. ant-pm-2), 10% defined fetal bovine serum, heat inactivated (HyClone Laboratories Inc., cat. SH30070.03HI), 1.25 mM N-Acetyl-L-cysteine (Sigma-Aldrich, cat. A9165), 10 mM nicotinamide (Sigma-Aldrich, cat. N0636), 1X B-27 supplement (Thermo Fisher Scientific, cat. 17504044), 1X N-2 supplement (Thermo Fisher Scientific, cat. 17502048), and 10 microM Y-27632 dihydrochloride (Tocris Bioscience, cat. 1254). The 876862-298-R-J1-PDC was cultured in 6E media, which includes all 6B/Colon 1A media components plus 50% L-WRN conditioned media (ATCC, cat. CRL-3276), 50 ng/mL recombinant human EGF recombinant protein (hEGF; Thermo Fisher Scientific, cat. PHG0311), 10 ng/mL recombinant human fibroblast growth factor 10 (hGFG-10; PeproTech, cat. 100-26), 1 ng/mL recombinant human fibroblast growth factor 2 (hFGF-2; PeproTech, cat. 100-18B), and 1 µM prostaglandin E2 (PGE2; Tocris, cat. 2296). The 227483-062-R1-J1-PDC line was cultured in Panc media, containing all 6E components except hFGF-2, with the addition of 500 nM SB-431542 (Selleckchem, cat. S1067) and 10 nM gastrin (Tocris, cat. 3006). […]

[1] = second compound 0.0316 µM, first compound 0.0316 µM
[2] = second compound 0.0316 µM, first compound 0.1 µM
[3] = second compound 0.0316 µM, first compound 0.316 µM
[4] = second compound 0.0316 µM, first compound 1 µM
[5] = second compound 0.1 µM, first compound 0.0316 µM
[6] = second compound 0.1 µM, first compound 0.1 µM
[7] = second compound 0.1 µM, first compound 0.316 µM
[8] = second compound 0.1 µM, first compound 1 µM
[9] = second compound 0.316 µM, first compound 0.0316 µM
[10] = second compound 0.316 µM, first compound 0.1 µM
[11] = second compound 0.316 µM, first compound 0.316 µM
[12] = second compound 0.316 µM, first compound 1 µM
[13] = second compound 1 µM, first compound 0.0316 µM
[14] = second compound 1 µM, first compound 0.1 µM
[15] = second compound 1 µM, first compound 0.316 µM
[16] = second compound 1 µM, first compound 1 µM
[17] = second compound 3.16 µM, first compound 0.0316 µM
[18] = second compound 3.16 µM, first compound 0.1 µM
[19] = second compound 3.16 µM, first compound 0.316 µM
[20] = second compound 3.16 µM, first compound 1 µM
[21] = second compound 10 µM, first compound 0.0316 µM
[22] = second compound 10 µM, first compound 0.1 µM
[23] = second compound 10 µM, first compound 0.316 µM
[24] = second compound 10 µM, first compound 1 µM
[25] = second compound 0.0316 µM, first compound 0.00316 µM
[26] = second compound 0.0316 µM, first compound 0.01 µM
[27] = second compound 0.1 µM, first compound 0.00316 µM
[28] = second compound 0.1 µM, first compound 0.01 µM
[29] = second compound 0.316 µM, first compound 0.00316 µM
[30] = second compound 0.316 µM, first compound 0.01 µM
[31] = second compound 1 µM, first compound 0.00316 µM
[32] = second compound 1 µM, first compound 0.01 µM
[33] = second compound 3.16 µM, first compound 0.00316 µM
[34] = second compound 3.16 µM, first compound 0.01 µM
[35] = second compound 10 µM, first compound 0.00316 µM
[36] = second compound 10 µM, first compound 0.01 µM
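Also: spheroids exposed to the drugs for 7 days before readout.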
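For viability, T/C in this document: 100% = DMSO vehicle control wells.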

## CC(Nc1ccc2c(c1)OCCn1cc(N3C(=O)OCC3C(F)F)nc1-2)C(N)=O (stereo unspecified) + CN1CCN(c2cc(C(=O)Nc3cc4cc(-c5cnn(C)c5)ccc4cn3)ccn2)CC1
Second compound 0.0316 µM
  pIC50: 6.78
Second compound 0.1 µM
  pIC50: 7.00
Second compound 0.316 µM
  pIC50: > 7.50
Second compound 1 µM
  pIC50: > 7.50
Second compound 3.16 µM
  pIC50: > 7.50
Second compound 10 µM
  pIC50: > 7.50
[1]
  viability, T/C: 86.4%
[2]
  viability, T/C: 60.1%
[3]
  viability, T/C: 37.2%
[4]
  viability, T/C: 22%
Second compound 0.0316 µM, first compound 3.16 µM
  viability, T/C: 13.6%
Second compound 0.0316 µM, first compound 10 µM
  viability, T/C: 8.34%
[5]
  viability, T/C: 64%
[6]
  viability, T/C: 51.2%
[7]
  viability, T/C: 32.3%
[8]
  viability, T/C: 20.9%
Second compound 0.1 µM, first compound 3.16 µM
  viability, T/C: 14.5%
Second compound 0.1 µM, first compound 10 µM
  viability, T/C: 8.7%
[9]
  viability, T/C: 7.37%
[10]
  viability, T/C: 5.41%
[11]
  viability, T/C: 2.52%
[12]
  viability, T/C: 2.18%
Second compound 0.316 µM, first compound 3.16 µM
  viability, T/C: 2.7%
Second compound 0.316 µM, first compound 10 µM
  viability, T/C: 2.59%
[13]
  viability, T/C: 0.4%
[14]
  viability, T/C: 0.53%
[15]
  viability, T/C: 2.57%
[16]
  viability, T/C: 0.36%
Second compound 1 µM, first compound 3.16 µM
  viability, T/C: 1.09%
Second compound 1 µM, first compound 10 µM
  viability, T/C: 1.26%
[17]
  viability, T/C: 0.43%
[18]
  viability, T/C: 0.34%
[19]
  viability, T/C: 1.75%
[20]
  viability, T/C: 0.38%
Second compound 3.16 µM, first compound 3.16 µM
  viability, T/C: 0.52%
Second compound 3.16 µM, first compound 10 µM
  viability, T/C: 0.5%
[21]
  viability, T/C: 0.2%
[22]
  viability, T/C: 0.58%
[23]
  viability, T/C: 1.4%
[24]
  viability, T/C: 0.27%
Second compound 10 µM, first compound 3.16 µM
  viability, T/C: 0.59%
Second compound 10 µM, first compound 10 µM
  viability, T/C: 0.57%

## CCN1CCN(Cc2ccc(Nc3ncc(F)c(-c4cc(F)c5nc(C)n(C(C)C)c5c4)n3)nc2)CC1 + CN1CCN(c2cc(C(=O)Nc3cc4cc(-c5cnn(C)c5)ccc4cn3)ccn2)CC1
Second compound 0.0316 µM
  pIC50: < 6.00
Second compound 0.1 µM
  pIC50: < 6.00
Second compound 0.316 µM
  pIC50: > 8.50
Second compound 1 µM
  pIC50: > 8.50
Second compound 3.16 µM
  pIC50: > 8.50
Second compound 10 µM
  pIC50: > 8.50
[25]
  viability, T/C: 90.4%
[26]
  viability, T/C: 87.9%
[1]
  viability, T/C: 78.6%
[2]
  viability, T/C: 81%
[3]
  viability, T/C: 76.2%
[4]
  viability, T/C: 87.7%
[27]
  viability, T/C: 79.5%
[28]
  viability, T/C: 73%
[5]
  viability, T/C: 72.8%
[6]
  viability, T/C: 72.9%
[7]
  viability, T/C: 68.2%
[8]
  viability, T/C: 70.6%
[29]
  viability, T/C: 6.01%
[30]
  viability, T/C: 10.2%
[9]
  viability, T/C: 8.8%
[10]
  viability, T/C: 11.3%
[11]
  viability, T/C: 13.7%
[12]
  viability, T/C: 9.83%
[31]
  viability, T/C: 0.34%
[32]
  viability, T/C: 0.41%
[13]
  viability, T/C: 0.41%
[14]
  viability, T/C: 0.39%
[15]
  viability, T/C: 0.77%
[16]
  viability, T/C: 2.79%
[33]
  viability, T/C: 0.34%
[34]
  viability, T/C: 1.89%
[17]
  viability, T/C: 1.33%
[18]
  viability, T/C: 0.51%
[19]
  viability, T/C: 1.22%
[20]
  viability, T/C: 4.6%
[35]
  viability, T/C: 0.22%
[36]
  viability, T/C: 0.34%
[21]
  viability, T/C: 0.36%
[22]
  viability, T/C: 0.29%
[23]
  viability, T/C: 1.36%
[24]
  viability, T/C: 2.46%

## COc1c(OCCCN2CCOCC2)ccc2c3n(c(=NC(=O)c4cnc(N)nc4)nc12)CCN3 + CN1CCN(c2cc(C(=O)Nc3cc4cc(-c5cnn(C)c5)ccc4cn3)ccn2)CC1
Second compound 0.0316 µM
  pIC50: 7.80
Second compound 0.1 µM
  pIC50: 7.88
Second compound 0.316 µM
  pIC50: > 8.50
Second compound 1 µM
  pIC50: > 8.50
Second compound 3.16 µM
  pIC50: > 8.50
Second compound 10 µM
  pIC50: > 8.50
[25]
  viability, T/C: 84.8%
[26]
  viability, T/C: 61.2%
[1]
  viability, T/C: 33.2%
[2]
  viability, T/C: 14.5%
[3]
  viability, T/C: 7%
[4]
  viability, T/C: 4.1%
[27]
  viability, T/C: 65.5%
[28]
  viability, T/C: 58.2%
[5]
  viability, T/C: 27.1%
[6]
  viability, T/C: 11.5%
[7]
  viability, T/C: 8.48%
[8]
  viability, T/C: 3.16%
[29]
  viability, T/C: 5.23%
[30]
  viability, T/C: 3.99%
[9]
  viability, T/C: 2.13%
[10]
  viability, T/C: 1.22%
[11]
  viability, T/C: 0.53%
[12]
  viability, T/C: 0.56%
[31]
  viability, T/C: 0.41%
[32]
  viability, T/C: 0.62%
[13]
  viability, T/C: 1.84%
[14]
  viability, T/C: 0.29%
[15]
  viability, T/C: 0.49%
[16]
  viability, T/C: 1.95%
[33]
  viability, T/C: 0.35%
[34]
  viability, T/C: 1.42%
[17]
  viability, T/C: 0.35%
[18]
  viability, T/C: 0.45%
[19]
  viability, T/C: 1.33%
[20]
  viability, T/C: 0.46%
[35]
  viability, T/C: 0.26%
[36]
  viability, T/C: 0.83%
[21]
  viability, T/C: 0.25%
[22]
  viability, T/C: 0.19%
[23]
  viability, T/C: 0.4%
[24]
  viability, T/C: 1.34%
